System: type II alveolar epithelial cells
Assay: Three-dimensional subculture of type II alveolar epithelial cells (AT2-P0 to AT2-P1) in medium for Step 5 with additives, SFTPC-GFP reporter cells
Type: cell-based, human
Settings: for percentage of type II alveolar epithelial cells maintained of the whole including fibroblasts used for coculture / percentage of type II alveolar epithelial cells maintained relative to the epithelial cell component: AT2-P1, medium for Step 5 plus additive (300 ng/ml WIF, 100 ng/ml IGF2, 10 ng/ml EGF, 20 ng/ml NRG1 β, 3 μM CHIR99021); for percentage of type II alveolar epithelial cells maintained of the whole including fibroblasts used for coculture: control 9.4%; for percentage of type II alveolar epithelial cells maintained relative to the epithelial cell component: control 48.4%; for maintenance of type II alveolar epithelial cells compared with medium supplemented with EGF, NRG1β, CHIR99021: WIF1 300 ng/ml or IGF2 100 ng/ml vs EGF 10 ng/ml, NRG1β 20 ng/ml, CHIR99021 3 μM; for maintenance of type II alveolar epithelial cells in subculture (FIG. 17): medium for Step 5 supplemented with WIF1 (300 ng/ml) or IGF2 (100 ng/ml)
Experimental: On Day 35 of type II alveolar epithelial cell induction in Example 1 (i.e., upon completion of Step 5), the cell mass composed of fibroblasts and spheroids subjected to three-dimensional coculture was removed from the Cell Culture Inserts. The removed cell mass was cut into small pieces of approximately 1 mm with the use of a clean surgical knife, the cells were recovered with the addition of PBS, and centrifugation was carried out at 900 rpm for 5 minutes to remove the supernatant. 0.1% Trypsin/EDTA was added to the precipitate and incubation was then carried out at 37° C. for 15 minutes while adequately repeating pipetting.
Subsequently, DMEM supplemented with 2% FBS was added to neutralize trypsin, followed by centrifugation at 4° C. and 900 rpm for 7 minutes. The supernatant was suction-removed, 1% BSA/PBS was added to the remaining cell pellet, and the resultant was centrifuged again at 4° C. and 900 rpm for 5 minutes. The cell pellet was suspended in 1% BSA/PBS, the mouse anti-human Ep-CAM antibody (Santa Cruz) was added thereto, and the reaction was allowed to proceed at 4° C. for 20 minutes.
Subsequently, the cells were washed 2 times with 1% BSA/PBS, the ALEXA FLUOR® 647-labeled anti-mouse antibody (Life Technologies) was added thereto, and the reaction was allowed to proceed at 4° C. for 20 minutes. After the reaction product was washed 2 times with 1% BSA/PBS, propidium iodide was added in the end, and SFTPC-GFP-positive cells were isolated via FACS with the use of BD FACSAria® II or Aria® III (BD Biosciences). The isolated cells were used as the type II alveolar epithelial cells (AT2-P0).
When type II alveolar epithelial cells were to be subcultured, the type II alveolar epithelial cells were mixed with human fetal lung fibroblasts immediately after isolation, or cryopreserved type II alveolar epithelial cells were mixed with human fetal lung fibroblasts at a ratio of 1:50, the cell suspension of the medium for Step 5 comprising the cells at a cell density of 2.5×10^6 cells/ml and Y-27632 at the final concentration of 10 μM was mixed with MATRIGEL® (Corning) at a ratio of 1:1 at a low temperature, the resultant was immediately added to the upper layer of the Cell Culture Inserts, and the medium for Step 5 was added to the lower layer. The amount to be added to the upper layer of the 12-well plate Cell Culture Inserts is preferably 200 to 400 μL and the amount to be added to the lower layer thereof is preferably 1 ml.
On the first 2 days after the subculture, Y-27632 was added to the medium for Step 5 to the final concentration of 10 μM. Thereafter, the medium for Step 5 of the lower layer was selectively exchanged with another medium every other day. The type II alveolar epithelial cells were isolated 14 days after the initiation of culture, and culture was continued by repeating the three-dimensional coculture with the human fetal lung fibroblasts. As a subculture goes on to the following generation, the cells were designated as AT2-P1, AT2-P2. . . .

| Compound | percentage of type II alveolar epithelial cells maintained of the whole including fibroblasts used for coculture | percentage of type II alveolar epithelial cells maintained relative to the epithelial cell component | maintenance of type II alveolar epithelial cells compared with medium supplemented with EGF, NRG1β, CHIR99021 | maintenance of type II alveolar epithelial cells in subculture (FIG. 17) |
| --- | --- | --- | --- | --- |
| Cc1c[nH]c(-c2cnc(NCCNc3ccc(C#N)cn3)nc2-c2ccc(Cl)cc2Cl)n1 [CHIR99021, 6-[2-[4-(2,4-dichlorophenyl)-5-(4-methyl-1H-imidazol-2-yl)pyrimidin-2-ylamino]-ethylamino]pyridine-3-carbonitrile, reference compound] | 0.5% | 23.8% |  |  |
| IGF2: protein encoded by the polynucleotide shown in NCBI Accession Number NM_000612 (R&D Systems) | 16.6% | 58.0% | maintained with higher efficiency | efficiently maintained |
| EGF: EGF (Wako), medium additive | 1.2% | 5.3% |  |  |
| WIF1: WNT signal inhibitor; protein encoded by the polynucleotide shown in NCBI Accession Number NM_007191 (R&D Systems) | 20.2% | 54.4% | maintained with higher efficiency | efficiently maintained |
